Assays:
[1] = system: Mycobacterium tuberculosis Erdman (autoluminescent); experiment: total FIC50 (Loewe) at 50% inhibition, three-drug combination (log2); higher = more antagonistic
Experimental: (§1)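 DiaMOND equipotent three-drug combination dose responses (10 doses, 1.5- or 2-fold spacing, centred on IC90) against autoluminescent M. tuberculosis Erdman in 8 in vitro models. Read-out is OD600, or luminescence for the intracellular and dormancy models, normalised to untreated wells. Hill-fit Einf, AUC25 and GRinf are potency metrics; FIC50 and FIC90 are total Loewe fractional inhibitory concentrations as log2 (negative = synergy).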

[2] = system: Mycobacterium tuberculosis Erdman (autoluminescent); experiment: total FIC90 (Loewe) at 90% inhibition, three-drug combination (log2); higher = more antagonistic
Experimental: as §1

[3] = system: Mycobacterium tuberculosis Erdman (autoluminescent); experiment: AUC25, normalised area under dose response up to IC25 (three-drug combination) (fraction (0-1)); higher = more potent at low dose
Experimental: as §1

[4] = system: Mycobacterium tuberculosis Erdman (autoluminescent); experiment: Einf, fitted maximum growth inhibition of three-drug combination (fraction); higher = stronger maximal inhibition
Experimental: as §1

[5] = system: Mycobacterium tuberculosis Erdman (autoluminescent); experiment: GRinf, maximum normalised growth rate inhibition (three-drug combination) (unitless (-1 to 1)); higher = less effect (negative = killing)
Experimental: as §1

CC(=O)NC[C@H]1CN(c2ccc(N3CCOCC3)c(F)c2)C(=O)O1 [linezolid] + COc1c(N2C[C@@H]3CCCN[C@@H]3C2)c(F)cc2c(=O)c(C(=O)O)cn(C3CC3)c12 [moxifloxacin] + CO[C@H]1/C=C/O[C@@]2(C)Oc3c(C)c(O)c4c(O)c(c(/C=N/N5CCN(C6CCCC6)CC5)c(O)c4c3C2=O)NC(=O)/C(C)=C\C=C\[C@H](C)[C@H](O)[C@@H](C)[C@@H](O)[C@@H](C)[C@H](OC(C)=O)[C@@H]1C [rifapentine]
Details	AUC25, [3]	Einf, [4]	GRinf, [5]	total FIC50, [1]	total FIC90, [2]
in vitro model: acidic pH 5.7, time point: constant (~7 days, model-specific)	0.0572	0.8	0.0276	0.827	–
in vitro model: acidic pH 5.7, time point: terminal (~4-5 doublings, model-specific)	0.0558	0.976	-0.0724	0.952	0.684
in vitro model: intracellular J774, time point: constant = terminal	–	0.911	-0.0811	–	0.0429

Details	AUC25, [3]	Einf, [4]	GRinf, [5]	total FIC50, [1]	total FIC90, [2]
in vitro model: butyrate, time point: constant (~7 days, model-specific)	0.0841	0.876	0.149	0.365	0.691
in vitro model: butyrate, time point: terminal (~4-5 doublings, model-specific)	0.0527	0.929	0.0958	0.352	0.196
in vitro model: cholesterol 0.05 mM, time point: constant (~7 days, model-specific)	0.157	0.694	-0.35	0.586	–
in vitro model: cholesterol 0.05 mM, time point: terminal (~4-5 doublings, model-specific)	0.129	0.909	-0.32	0.581	-0.237
in vitro model: cholesterol-high 0.2 mM, time point: constant (~7 days, model-specific)	0.11	0.913	-0.639	0.553	0.386
in vitro model: cholesterol-high 0.2 mM, time point: terminal (~4-5 doublings, model-specific)	0.113	1	-0.938	0.377	0.836
in vitro model: dormancy (butyrate + nitrate, low O2), time point: constant (~7 days, model-specific)	0.0602	0.862	0.223	1.04	0.925
in vitro model: dormancy (butyrate + nitrate, low O2), time point: terminal (~4-5 doublings, model-specific)	0.0346	0.979	-0.11	1.31	1.02
in vitro model: standard 7H9 glycerol, time point: constant = terminal	0.0607	0.902	0.0317	0.709	0.569
in vitro model: valerate, time point: constant (~7 days, model-specific)	0.109	0.834	0.129	0.0907	–
in vitro model: valerate, time point: terminal (~4-5 doublings, model-specific)	0.0452	0.914	0.0886	0.472	0.387

CC(=O)NC[C@H]1CN(c2ccc(N3CCOCC3)c(F)c2)C(=O)O1 [linezolid] + COc1c(N2C[C@@H]3CCCN[C@@H]3C2)c(F)cc2c(=O)c(C(=O)O)cn(C3CC3)c12 [moxifloxacin] + CO[C@H]1/C=C/O[C@@]2(C)Oc3c(C)c(O)c4c(O)c(c(/C=N/N5CCN(C)CC5)c(O)c4c3C2=O)NC(=O)/C(C)=C\C=C\[C@H](C)[C@H](O)[C@@H](C)[C@@H](O)[C@@H](C)[C@H](OC(C)=O)[C@@H]1C [rifampicin]
Details	AUC25, [3]	Einf, [4]	GRinf, [5]	total FIC50, [1]	total FIC90, [2]
in vitro model: acidic pH 5.7, time point: constant (~7 days, model-specific)	0.0527	0.811	-0.0255	0.498	–
in vitro model: acidic pH 5.7, time point: terminal (~4-5 doublings, model-specific)	0.0717	0.984	-0.147	0.628	0.503
in vitro model: intracellular J774, time point: constant = terminal	–	0.919	-0.103	–	0.656

Details	AUC25, [3]	Einf, [4]	GRinf, [5]	total FIC50, [1]	total FIC90, [2]
in vitro model: butyrate, time point: constant (~7 days, model-specific)	0.0848	0.857	0.177	0.137	–
in vitro model: butyrate, time point: terminal (~4-5 doublings, model-specific)	0.0684	0.929	0.128	0.112	0.0683
in vitro model: cholesterol 0.05 mM, time point: constant (~7 days, model-specific)	0.156	0.709	-0.119	0.272	–
in vitro model: cholesterol 0.05 mM, time point: terminal (~4-5 doublings, model-specific)	0.124	0.916	-0.285	4.84	-0.628
in vitro model: cholesterol-high 0.2 mM, time point: constant (~7 days, model-specific)	0.0752	0.889	-0.343	0.731	-0.284
in vitro model: cholesterol-high 0.2 mM, time point: terminal (~4-5 doublings, model-specific)	0.0984	1	-0.901	0.947	0.931
in vitro model: dormancy (butyrate + nitrate, low O2), time point: constant (~7 days, model-specific)	0.0613	0.873	0.239	1.14	0.815
in vitro model: dormancy (butyrate + nitrate, low O2), time point: terminal (~4-5 doublings, model-specific)	0.0476	0.971	-0.0219	0.897	0.88
in vitro model: standard 7H9 glycerol, time point: constant = terminal	0.0568	0.839	0.261	0.691	–
in vitro model: valerate, time point: constant (~7 days, model-specific)	0.0669	0.803	0.0279	0.393	–
in vitro model: valerate, time point: terminal (~4-5 doublings, model-specific)	0.0324	0.928	0.0628	0.609	0.105

CC(=O)NC[C@H]1CN(c2ccc(N3CCOCC3)c(F)c2)C(=O)O1 [linezolid] + COc1c(N2C[C@@H]3CCCN[C@@H]3C2)c(F)cc2c(=O)c(C(=O)O)cn(C3CC3)c12 [moxifloxacin] + NC(=O)c1cnccn1 [pyrazinamide]
Details	AUC25, [3]	Einf, [4]	GRinf, [5]	total FIC50, [1]	total FIC90, [2]
in vitro model: acidic pH 5.7, time point: constant (~7 days, model-specific)	0.0593	0.734	-0.345	-0.252	–
in vitro model: acidic pH 5.7, time point: terminal (~4-5 doublings, model-specific)	0.0649	0.955	-0.38	1.52	-0.8
in vitro model: intracellular J774, time point: constant = terminal	–	0.939	-0.17	–	0.559

Details	AUC25, [3]	Einf, [4]	GRinf, [5]	total FIC50, [1]	total FIC90, [2]
in vitro model: butyrate, time point: constant (~7 days, model-specific)	0.108	0.891	0.0582	0.00706	2.34
in vitro model: butyrate, time point: terminal (~4-5 doublings, model-specific)	0.0904	0.952	0.0307	0.0931	0.745
in vitro model: cholesterol 0.05 mM, time point: constant (~7 days, model-specific)	0.145	0.704	-0.234	–	–
in vitro model: cholesterol 0.05 mM, time point: terminal (~4-5 doublings, model-specific)	0.147	0.932	-0.426	0.356	–
in vitro model: cholesterol-high 0.2 mM, time point: constant (~7 days, model-specific)	0.106	0.923	-0.819	0.486	–
in vitro model: cholesterol-high 0.2 mM, time point: terminal (~4-5 doublings, model-specific)	0.115	1	-1	0.334	0.717
in vitro model: dormancy (butyrate + nitrate, low O2), time point: constant (~7 days, model-specific)	0.0721	0.855	0.269	0.651	0.461
in vitro model: dormancy (butyrate + nitrate, low O2), time point: terminal (~4-5 doublings, model-specific)	0.0321	0.973	-0.0525	0.786	0.354
in vitro model: standard 7H9 glycerol, time point: constant = terminal	0.0843	0.962	-0.271	–	–
in vitro model: valerate, time point: constant (~7 days, model-specific)	0.0976	0.87	0.12	-0.0785	–
in vitro model: valerate, time point: terminal (~4-5 doublings, model-specific)	0.0603	0.921	0.0594	0.266	0.56

— the supplement of paper PMC8617591
